In patent publication US8227497B2, “Dual-acting antihypertensive agents” (Theravance, Inc., priority 2008, dated 2012):

Experiments:
[1] = biological target: T1, NEP enzyme (Homo sapiens, UniProt P08473); assay: In vitro NEP enzyme inhibition assay (Assay 2); format: biochemical; settings: fluorogenic peptide substrate, room temperature; read-out: pIC50 for the NEP enzyme (converted)
T1 construct: purchased R&D Systems, Minneapolis, Minn; 1182-ZN
Procedure: The inhibitory activities of compounds at human and rat NEP and human ACE were determined using in vitro assays as described below.
Rat NEP was prepared from the kidneys of adult Sprague Dawley rats. Whole kidneys were washed in cold PBS and brought up in ice-cold lysis buffer (1% Triton X-114, 150 mM NaCl, 50 mM Tris pH 7.5; Bordier (1981) J. Biol. Chem. 256:1604-1607) in a ratio of 5 mL of buffer for every gram of kidney. Samples were homogenized using a polytron hand held tissue grinder on ice. Homogenates were centrifuged at 1000×g in a swinging bucket rotor for 5 minutes at 3° C. The pellet was resuspended in 20 mL of ice cold lysis buffer and incubated on ice for 30 minutes. […] Protein concentrations were quantitated using a BCA detection system with BSA as a standard. […]
The assays were performed in 384-well white opaque plates at room temperature using the respective fluorogenic peptides at a concentration of 10 μM in Assay Buffer (50 mM Tris/HCl at 25° C., 100 mM NaCl, 0.01% Tween-20, 1 μM Zn, 0.025% BSA). […] The rat NEP enzyme preparation was used at a concentration that yielded quantitative proteolysis of 3 μM of Mca-RRL within 20 minutes at room temperature. […]
Plates were read on a fluorometer with excitation and emission wavelengths set to 320 nm and 405 nm, respectively. […]

[2] = biological target: T2, human AT1 receptor (Homo sapiens, UniProt P30556); assay: AT1 radioligand binding assay (Assay 1); settings: displacement of [Eu]AngII, membranes of CHO-K1 cells expressing human AT1 receptor; read-out: pKi at the AT1 receptor (converted)
T2 construct: expressed in transfected cells; membranes
T2 sequence (P30556 1-359): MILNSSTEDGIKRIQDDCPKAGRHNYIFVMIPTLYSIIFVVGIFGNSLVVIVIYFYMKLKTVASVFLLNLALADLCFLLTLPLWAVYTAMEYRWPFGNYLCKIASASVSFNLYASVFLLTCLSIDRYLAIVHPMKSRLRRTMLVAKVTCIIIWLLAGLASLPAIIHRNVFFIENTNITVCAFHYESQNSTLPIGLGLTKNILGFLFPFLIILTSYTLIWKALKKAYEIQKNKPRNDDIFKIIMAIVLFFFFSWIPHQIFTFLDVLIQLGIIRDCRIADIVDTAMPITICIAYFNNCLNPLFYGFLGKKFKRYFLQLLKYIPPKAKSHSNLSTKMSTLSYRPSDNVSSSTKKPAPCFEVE
Procedure: These in vitro assays were used to assess the ability of test compounds to bind to the AT1 and the AT2 receptors.
Chinese hamster ovary (CHO-K1) derived cell lines stably expressing the cloned human AT1 or AT2 receptors, respectively, were grown in HAM's-F12 medium supplemented with 10% fetal bovine serum, 10 μg/ml penicillin/streptomycin, and 500 μg/ml geneticin in a 5% CO2 humidified incubator at 37° C. AT2 receptor expressing cells were grown in the additional presence of 100 nM PD123,319 (AT2 antagonist). When cultures reached 80-95% confluence, the cells were washed thoroughly in PBS and lifted with 5 mM EDTA. Cells were pelleted by centrifugation and snap frozen in MeOH-dry ice and stored at −80° C. until further use.
For membrane preparation, cell pellets were resuspended in lysis buffer (25 mM Tris/HCl pH 7.5 at 4° C., 1 mM EDTA, and one tablet of Complete Protease Inhibitor Cocktail Tablets with 2 mM EDTA per 50 mL buffer (Roche cat. #1697498, Roche Molecular Biochemicals, Indianapolis, Ind.)) and homogenized using a tight-fitting Dounce glass homogenizer (10 strokes) on ice. The homogenate was centrifuged at 1000×g, the supernatant was collected and centrifuged at 20,000×g. […] Protein concentration of the membrane suspension was determined by the method described in Bradford (1976) Anal Biochem. 72:248-54. […]

T1 sequence (P08473 52-750 limits assumed): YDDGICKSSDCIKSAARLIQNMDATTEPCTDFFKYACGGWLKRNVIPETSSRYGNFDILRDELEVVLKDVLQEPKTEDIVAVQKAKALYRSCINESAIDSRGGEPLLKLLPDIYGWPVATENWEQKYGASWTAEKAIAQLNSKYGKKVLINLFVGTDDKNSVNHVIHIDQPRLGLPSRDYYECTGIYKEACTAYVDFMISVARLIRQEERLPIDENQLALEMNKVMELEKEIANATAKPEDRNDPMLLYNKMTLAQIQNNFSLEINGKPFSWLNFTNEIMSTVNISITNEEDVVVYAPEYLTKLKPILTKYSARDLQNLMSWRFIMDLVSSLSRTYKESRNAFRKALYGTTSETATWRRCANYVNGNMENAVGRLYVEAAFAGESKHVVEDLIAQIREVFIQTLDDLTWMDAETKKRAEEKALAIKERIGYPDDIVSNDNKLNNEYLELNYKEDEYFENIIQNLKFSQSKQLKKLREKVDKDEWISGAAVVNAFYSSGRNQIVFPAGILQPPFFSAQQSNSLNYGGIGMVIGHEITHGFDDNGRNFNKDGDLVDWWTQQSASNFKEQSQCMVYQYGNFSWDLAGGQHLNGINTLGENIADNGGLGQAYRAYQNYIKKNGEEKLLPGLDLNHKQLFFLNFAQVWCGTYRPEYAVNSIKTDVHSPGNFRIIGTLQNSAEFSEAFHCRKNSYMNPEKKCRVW

IC50 [1]: ≤ 100 nM | Ki [2]: < 100 nM
Structure (SMILES): CCCCc1nc(Cl)c(CO)n1Cc1ccc(-c2ccccc2S(=O)(=O)NC(=O)CNC(=O)C(Cc2ccccc2)C(=O)NO)cc1 (centres unmarked) [Example 1, 2-Benzyl-N-{2-[4′-(2-butyl-4-chloro-5-hydroxymethylimidazol-1-ylmethyl)biphenyl-2-sulfonylamino]-2-oxoethyl}-N′-hydroxymalonamide.(C2HF3O2)]
